Measured values published in publication PMC9309159, “Identification of heptapeptides targeting a lethal bacterial strain in septic mice through an integrative approach” (Signal Transduction and Targeted Therapy, 2022).
“Also recorded” adds a separate entry of the source. Ends that are not written are not given here. * marks the point of attachment. Biotin = O=C1N[C@H]2[C@H](CS[C@H]2CCCCC(=O)*)N1

What was measured:
bacterial strain MSI001 = assay: In vitro antibacterial assay (colony counting); type: cell-based, Escherichia coli; conditions: 1 × 10^3 CFU, peptide 0.25, 0.5, 1 μmol/L, 37 °C, 1-8 h, colony count, n = 3
Protocol: Fig. 6 Antimicrobial activity of the C7C-LL37 fusion peptides in vitro. a Primary structures and physical properties of the C7C and LL37 fusion peptides, including LL37, VTK-LL37, LL37-VTK, KYY-LL37 and LL37-KYY, ISS-LL37, INS-LL37. Net charge, PI and GRAVY values were acquired as described above. b Inhibitory effect of C7C-LL37 fusion peptides on bacterial growth. A C7C-LL37 fusion peptide or LL37 alone was added to the cultured bacterial strain MSI001 (1 × 10^3 CFU) at final concentrations of 0.25 μmol/L, 0.5 μmol/L and 1 μmol/L. Sterile DPBS was used as control. After incubation with the C7C-LL37 or LL37 peptides at 37 °C for different times (1-8 h), bacterial colonies were counted. n = 3. *P < 0.05, VTK-LL37 group compared to LL37 group; ^#P < 0.05, LL37-VTK group compared to LL37 group. c, d Inhibitory effect of VTK-LL37 on biofilm formation. The VTK-LL37 or LL37 peptide was added to the bacterial culture at a final concentration of 0-4 μmol/L and incubated at 37 °C for 3 days. Bacterial culture medium and the peptides were refreshed every day. The biofilm was stained with 1% crystal violet, and the precipitates were dissolved in 95% ethanol, followed by detection of absorbance at 570 nm (A570) (c). Moreover, the biofilm was observed under a microscope (d). n = 5. *P < 0.05, VTK-LL37 group compared to LL37 group […]

DEGP protein = assay: SPRi assay of peptide binding to DEGP protein; parameters: species or system E. coli MSI001; conditions: control peptide immobilized on chip, value printed in picture of Fig. 8e
Protocol: (§1) Protein profiles were determined by cPCoA distance among samples and characterized by close intragroup distances among samples. b Hierarchical clustering analysis of proteins from the HEE, VTK and input groups. […] Label-free mass spectrometry was used to quantitate proteins from the HEE, VTK and input groups. Red represents high expression, while blue represents low expression. c Volcano plot of proteins from the VTK group and HEE group. […] DEGP or DEGQ protein at different concentrations (5 nmol/L, 10 nmol/L, 20 nmol/L) in solution flowed on an SPRi chip. Binding data were collected and analyzed by commercial SPRi analysis software (Plexera SPR Data Analysis Model, Plexera, USA).
(§2) To measure the binding affinity of peptides with targeted proteins, a PlexArray HT A100 (Plexera, USA) Surface Plasmon Resonance imaging (SPRi) system was used to monitor the whole procedure in real time. Briefly, a chip with a well-prepared peptide microarray was assembled with a plastic flow cell for sample loading. The operation details for the PlexArray HT were as described previously.[65] The purified protein samples were prepared at determined concentrations in PBS running buffer, while glycine-HCl buffer (10 mmol/L, pH 2.0) was used for regeneration. Binding data were collected and analyzed by SPR Data Analysis Module software (Plexera, USA). […]

DEGQ protein = assay: SPRi assay of peptide binding to DEGQ protein; parameters: species or system E. coli MSI001; conditions: control peptide immobilized on chip, value printed in picture of Fig. 8e
Protocol: as §1, §2

[1] = target: T1, DEGQ protein, purified (SPRi analyte) (E. coli (strain MSI001), UniProt P39099 28-455); assay: SPR; conditions: both partners purified
T1 sequence (looked up): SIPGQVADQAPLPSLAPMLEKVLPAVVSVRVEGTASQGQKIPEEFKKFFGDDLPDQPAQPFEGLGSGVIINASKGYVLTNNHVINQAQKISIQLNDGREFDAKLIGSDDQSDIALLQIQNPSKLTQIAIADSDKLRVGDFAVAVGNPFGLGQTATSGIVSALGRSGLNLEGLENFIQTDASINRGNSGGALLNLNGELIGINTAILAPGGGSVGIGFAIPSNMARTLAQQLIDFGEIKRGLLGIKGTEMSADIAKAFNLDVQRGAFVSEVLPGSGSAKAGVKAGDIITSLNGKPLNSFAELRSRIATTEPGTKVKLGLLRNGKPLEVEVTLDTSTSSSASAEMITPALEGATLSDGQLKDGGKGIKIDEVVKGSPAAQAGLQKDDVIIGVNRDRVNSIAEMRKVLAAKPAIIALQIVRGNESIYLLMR

[2] = target: T2, DEGP protein, purified (SPRi analyte) (E. coli (strain MSI001), UniProt P0C0V0 27-474); assay: SPR; conditions: both partners purified
T2 sequence (looked up): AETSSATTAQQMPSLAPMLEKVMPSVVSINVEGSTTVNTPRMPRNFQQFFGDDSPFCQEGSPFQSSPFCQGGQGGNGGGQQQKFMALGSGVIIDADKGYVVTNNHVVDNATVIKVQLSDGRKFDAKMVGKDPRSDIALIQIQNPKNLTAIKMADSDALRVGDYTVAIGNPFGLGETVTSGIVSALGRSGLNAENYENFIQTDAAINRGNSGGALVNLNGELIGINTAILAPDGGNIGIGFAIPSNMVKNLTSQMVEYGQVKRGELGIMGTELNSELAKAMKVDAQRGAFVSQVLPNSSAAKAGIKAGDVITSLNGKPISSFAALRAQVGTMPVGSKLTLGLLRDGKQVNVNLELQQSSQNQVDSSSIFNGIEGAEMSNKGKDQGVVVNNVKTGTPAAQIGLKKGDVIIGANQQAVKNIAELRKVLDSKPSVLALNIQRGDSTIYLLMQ

## LLGDFFRKSKEKIGKEFKRIVQRIKDFLRNLVPRTESVPGVGCVTKLGSLC [LL37-VTK]
Bacterial strain MSI001
  inhibitory effect on bacterial growth of MSI001: inhibited MSI001 bacterial growth but also showed stronger antibiotic activity than LL37 alone in the early stage (1-3 h); also recorded: stronger bacteriostatic activity than other LL37 fusion peptides

## Biotin-CHEEWLPAC (cysteine pairing not given here) [control HEE heptapeptide]
DEGP protein
  Kd: 5250 nM
DEGQ protein
  Kd: 1000 nM

B1: VTK heptapeptide VTKLGSL, synthesized (immobilised on the SPRi chip) (peptide)
peptide: VTKLGSL
notes: also called VTK peptide; source: synthetic peptide
[1]
  Kd: 1.73 nM
[2]
  Kd: 15.8 nM
